From patent US20040006094A1, “4-pyrimidinamine derivatives, pharmaceutical compositions and related methods” (priority 2000, published 2004)

How the values were obtained:
p60^c-src = p60^c-src (Homo sapiens, UniProt P12931); details: read-out: Potency, IC50, p60^c-src; cited from earlier work
PKC = details: read-out: Potency, IC50, PKC; cited from earlier work
PKA = PKA (Homo sapiens, UniProt P17612); details: read-out: Potency, IC50, PKA; cited from earlier work
PKG = target: T1, PKG (Homo sapiens, UniProt Q13976); details: read-out: Potency, IC50, PKG; cited from earlier work
T1 sequence (Q13976 1-671): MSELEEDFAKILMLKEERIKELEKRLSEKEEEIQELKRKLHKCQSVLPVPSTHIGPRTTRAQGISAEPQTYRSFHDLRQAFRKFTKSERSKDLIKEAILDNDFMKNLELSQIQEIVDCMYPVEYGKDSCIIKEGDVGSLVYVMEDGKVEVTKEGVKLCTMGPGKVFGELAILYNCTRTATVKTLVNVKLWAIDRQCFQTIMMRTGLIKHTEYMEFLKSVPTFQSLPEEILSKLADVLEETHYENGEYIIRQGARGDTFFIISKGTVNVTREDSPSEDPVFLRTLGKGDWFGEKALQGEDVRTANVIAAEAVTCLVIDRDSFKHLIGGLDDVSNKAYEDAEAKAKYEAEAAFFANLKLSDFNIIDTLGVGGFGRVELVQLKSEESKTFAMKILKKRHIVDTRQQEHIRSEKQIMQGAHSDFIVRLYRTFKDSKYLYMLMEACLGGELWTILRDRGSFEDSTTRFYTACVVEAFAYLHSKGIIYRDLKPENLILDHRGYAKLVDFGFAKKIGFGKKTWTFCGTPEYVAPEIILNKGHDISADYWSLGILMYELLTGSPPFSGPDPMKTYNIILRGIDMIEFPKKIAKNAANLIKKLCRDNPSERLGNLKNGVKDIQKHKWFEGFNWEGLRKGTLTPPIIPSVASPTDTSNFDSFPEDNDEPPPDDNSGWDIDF

[1] = tested on: differentiated P19 neurons; experiment: Differentiated P19 excitotoxicity assay: neuroprotection by known kinase inhibitors against glutamate/glycine (Alamar Blue, CFDA); assay type: cell-based, murine; details: for Maximal Efficacy for Neuroprotection / IC50: 3 mM glutamate, 1 mM glycine; for IC50: mean of three separate curves, read-out: IC50 for Neuroprotection [lower-upper 95% C.I.]
Method: Data points are the average±standard error of three separate experiments.
These cells were used to measure the effects of various known kinase inhibitors (Compound Identification (ID) column in Table I) upon cytotoxicity-induced by NMDA. First, P19 cells were differentiated as described in Example 2. Then cells were exposed to 3 mM of glutamate in the presence of 1 mM glycine.
Cell viability was determined. Compounds that prevented excitotoxicity were determined by measuring the percentage of viable cells compared to differentiated P19 cells that were not presented with a toxic insult (Table I).
Cell viability was measured using two methods. The first method was a confocal, single-cell fluorescence imaging-based method using the live cell dye carboxy-fluorescein diacetate (CFDA). CFDA labels the cell bodies and processes of living cells. […] CFDA fluorescence was measured using a modified Attofluor Imager device (Atto Instruments, Rockville Pike, Md.). Cells were labeled with 1 uM CFDA for 15 min in media, then placed onto the stage of the Attofluor microscope. The dye was excited by light from a mercury lamp source passed through a 488 nm bandpass filter of 10 nm band width, passed through a CARV real-time confocal spinning disk module (Atto Instruments, Rockville, Md.), and then passed through a 40×oil immersion objective (Zeiss Fluar, NA=1.3). Emitted light was transmitted through a 495 nm dichroic mirror, collected to an Attofluor intensified CCD camera, and images were visualized using Attofluor Ratio Vision software (Atto Instruments, Rockville, Md.).
The second method for measuring cell viability was a plate reader method. Cells plated into black 96 well plates (Packard viewplates) were loaded with 5% Alamar Blue dye (Biosource International). Alamar Blue is a dye that takes advantage of mitochondrial reductases to convert non-fluorescent resazurin to fluorescent resorufin (excitation 535 nm, emission 580 nm). Baseline fluorescence counts were read at room temperature in a Wallac plate reader immediately after addition of Alamar blue. Fluorescence counts of cell viability were taken the same way after 1 hour incubation at 37° C. Fluorescence was expressed as a percent of control, untreated cells after subtraction of background fluorescence. Live/dead cells were confirmed visually with a light microscope.
Kinase inhibition activities and potencies were derived from the literature (Chijiwa et al. 1990; Favata et al. 1998; Henry et al. 1998; Inhorn and Majerus 1987; Kobayashi et al. 1989; Lee et al. 1994; Onoda et al. 1989; Tokumitsu et al. 1990). […] Curves were fit, and confidence intervals were determined using GraphPad Prism software.

P19 neurons = experiment: Post-treatment time course of neuroprotection in P19 neurons (delayed neuroprotection); assay type: cell-based, murine; details: compound added after glutamate challenge
Text: Time-course of efficacy is an extremely relevant parameter for a potential neuroprotective therapeutic agent, since the therapeutic would need to be administered hours to days after an ischemic event and still retain efficacy.

EGF receptor = EGF receptor (Homo sapiens, UniProt P00533); details: read-out: Potency, IC50, EGF receptor; cited from earlier work
EGF receptor, sequence (P00533 25-1210): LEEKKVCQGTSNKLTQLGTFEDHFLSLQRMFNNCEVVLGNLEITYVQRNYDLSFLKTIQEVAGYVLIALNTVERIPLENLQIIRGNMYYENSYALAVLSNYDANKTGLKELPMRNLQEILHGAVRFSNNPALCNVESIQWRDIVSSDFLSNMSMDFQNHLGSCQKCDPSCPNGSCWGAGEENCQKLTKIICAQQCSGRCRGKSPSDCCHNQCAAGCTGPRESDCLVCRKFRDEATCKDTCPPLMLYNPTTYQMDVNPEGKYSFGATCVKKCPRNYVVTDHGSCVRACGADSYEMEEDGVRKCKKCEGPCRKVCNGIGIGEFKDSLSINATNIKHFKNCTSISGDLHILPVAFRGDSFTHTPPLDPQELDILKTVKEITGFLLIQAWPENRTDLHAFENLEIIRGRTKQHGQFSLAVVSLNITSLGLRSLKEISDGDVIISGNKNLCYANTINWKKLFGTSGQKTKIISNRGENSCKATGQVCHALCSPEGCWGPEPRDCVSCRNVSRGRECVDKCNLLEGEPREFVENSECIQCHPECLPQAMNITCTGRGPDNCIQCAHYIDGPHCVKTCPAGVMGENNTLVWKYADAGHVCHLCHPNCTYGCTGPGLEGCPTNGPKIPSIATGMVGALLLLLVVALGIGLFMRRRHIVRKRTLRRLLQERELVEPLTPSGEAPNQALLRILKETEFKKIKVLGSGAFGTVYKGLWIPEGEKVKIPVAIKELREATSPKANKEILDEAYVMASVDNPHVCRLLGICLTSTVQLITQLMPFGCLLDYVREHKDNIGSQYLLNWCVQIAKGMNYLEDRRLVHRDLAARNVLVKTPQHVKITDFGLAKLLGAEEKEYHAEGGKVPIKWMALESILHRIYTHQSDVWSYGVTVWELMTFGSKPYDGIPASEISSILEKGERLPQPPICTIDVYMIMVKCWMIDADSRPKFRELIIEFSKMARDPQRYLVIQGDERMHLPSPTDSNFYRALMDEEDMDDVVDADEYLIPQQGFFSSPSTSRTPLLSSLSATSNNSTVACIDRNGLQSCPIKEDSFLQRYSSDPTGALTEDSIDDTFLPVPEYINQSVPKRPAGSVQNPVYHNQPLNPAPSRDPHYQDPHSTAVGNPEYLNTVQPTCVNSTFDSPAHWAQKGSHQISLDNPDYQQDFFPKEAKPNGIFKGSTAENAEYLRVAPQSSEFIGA

[2] = tested on: NMDA receptor-mediated intracellular calcium response; experiment: Fura-2 imaging of glutamate/glycine-induced intracellular calcium response in P19 neurons; assay type: cell-based, murine; details: 100 μM MK-801, 24 hours prior to assay; 3 mM glutamate, 1 mM glycine
Method: MK-801 was administered 24 hours prior to assay. […] MK-801 concentrations are expressed as 10^−x Molar. […] (FIG. 1B).
U0126 was administered concurrently with glutamate and glycine.

Male Wistar rats = experiment: Transient model of cerebral ischemia in rats (lesion volume); assay type: in vivo, rat; details: 3 mg/kg, i.p., 1 hr post ischemia onset; 24 h; average of 12
Method: Male Wistar rats (Iffa Crédo, France), weighing 250-300 g, were housed 2 per cage under a light-dark cycle of 12 hr-12 hr (light on at 7:00 a.m., off at 7:00 p.m.) at a room temperature of 21±2° C., with 50±15% humidity, for a minimum of 5 days before the experiments. During this time, the rats had free access to commercial rat chow (Trouw Nutrition France, Vigny, France, ref. 811002) and tap water.
The animals were anaesthetized with 5% halothane in air for induction, then 1-2% halothane during surgery. The rat's body temperature was maintained at 37° C. with a heating pad. A 2 cm incision was made at the center of the neck and the right common carotid artery (CCA), external carotid artery (ECA) and internal carotid artery (ICA) were exposed under an operating microscope. The ICA was further dissected to identify the pterygopalatine artery (PA) branch and the intracranial ICA branch. The CCA was ligated. A 3-0 silk suture was tied at the origin of the ECA and ligated. A catheter (id=0.58 mm) was introduced into the CCA through a small puncture and advanced to the intracranial branch of the ICA. A 4-0 surgical nylon suture was introduced into the catheter. A length of approximately 19 mm of nylon suture was gently advanced from the CCA into the lumen of the ICA until the suture blocked the origin of the MCA. The suture was sealed into the catheter by heat, leaving 1 cm of catheter protruding so the suture could be withdrawn to allow reperfusion. The incision was closed using skin clips. Anaesthesia was then terminated and the animals were placed under heat lamps until recovery from anaesthesia. The rats awakened 10-15 min later. After 2 hr of ischemia, reperfusion was performed by withdrawal of the suture until the tip cleared the ICA lumen. Vehicle or test compound was administered intraperitoneally (i.p.) or intravenously (i.v.) at 1 hr post ischemia onset.
24 h after the onset of occlusion, the rats were killed by decapitation. The brains were immediately removed, frozen in isopentane and stored at −20° C. The brains were then cut in 20 μm thick sections in a cryocut. Every 20th slice was used to measure infarct area. The sections were stained with cresyl violet and the areas of infarct in the striatum and cortex were determined by planimetry using an image analysis software (Image, NIH) after digitalization of the section images.
Following the procedure described above, MK-801, compound #46 and compound #264 (as listed in the Tables herein) were evaluated for neuroprotective effects in rats with results as listed in Table VIII. The data represent average lesion volume in mm^3 for 12 measurements. Vehicle used was 15% solutol in 5% dextrose.

NMDA receptor = NMDA receptor (Mus musculus, UniProt P35436+P35438+Q01097); details: P19 membranes, concentration-dependent
NMDA receptor, sequence (P35436 23-1464, other chains not shown): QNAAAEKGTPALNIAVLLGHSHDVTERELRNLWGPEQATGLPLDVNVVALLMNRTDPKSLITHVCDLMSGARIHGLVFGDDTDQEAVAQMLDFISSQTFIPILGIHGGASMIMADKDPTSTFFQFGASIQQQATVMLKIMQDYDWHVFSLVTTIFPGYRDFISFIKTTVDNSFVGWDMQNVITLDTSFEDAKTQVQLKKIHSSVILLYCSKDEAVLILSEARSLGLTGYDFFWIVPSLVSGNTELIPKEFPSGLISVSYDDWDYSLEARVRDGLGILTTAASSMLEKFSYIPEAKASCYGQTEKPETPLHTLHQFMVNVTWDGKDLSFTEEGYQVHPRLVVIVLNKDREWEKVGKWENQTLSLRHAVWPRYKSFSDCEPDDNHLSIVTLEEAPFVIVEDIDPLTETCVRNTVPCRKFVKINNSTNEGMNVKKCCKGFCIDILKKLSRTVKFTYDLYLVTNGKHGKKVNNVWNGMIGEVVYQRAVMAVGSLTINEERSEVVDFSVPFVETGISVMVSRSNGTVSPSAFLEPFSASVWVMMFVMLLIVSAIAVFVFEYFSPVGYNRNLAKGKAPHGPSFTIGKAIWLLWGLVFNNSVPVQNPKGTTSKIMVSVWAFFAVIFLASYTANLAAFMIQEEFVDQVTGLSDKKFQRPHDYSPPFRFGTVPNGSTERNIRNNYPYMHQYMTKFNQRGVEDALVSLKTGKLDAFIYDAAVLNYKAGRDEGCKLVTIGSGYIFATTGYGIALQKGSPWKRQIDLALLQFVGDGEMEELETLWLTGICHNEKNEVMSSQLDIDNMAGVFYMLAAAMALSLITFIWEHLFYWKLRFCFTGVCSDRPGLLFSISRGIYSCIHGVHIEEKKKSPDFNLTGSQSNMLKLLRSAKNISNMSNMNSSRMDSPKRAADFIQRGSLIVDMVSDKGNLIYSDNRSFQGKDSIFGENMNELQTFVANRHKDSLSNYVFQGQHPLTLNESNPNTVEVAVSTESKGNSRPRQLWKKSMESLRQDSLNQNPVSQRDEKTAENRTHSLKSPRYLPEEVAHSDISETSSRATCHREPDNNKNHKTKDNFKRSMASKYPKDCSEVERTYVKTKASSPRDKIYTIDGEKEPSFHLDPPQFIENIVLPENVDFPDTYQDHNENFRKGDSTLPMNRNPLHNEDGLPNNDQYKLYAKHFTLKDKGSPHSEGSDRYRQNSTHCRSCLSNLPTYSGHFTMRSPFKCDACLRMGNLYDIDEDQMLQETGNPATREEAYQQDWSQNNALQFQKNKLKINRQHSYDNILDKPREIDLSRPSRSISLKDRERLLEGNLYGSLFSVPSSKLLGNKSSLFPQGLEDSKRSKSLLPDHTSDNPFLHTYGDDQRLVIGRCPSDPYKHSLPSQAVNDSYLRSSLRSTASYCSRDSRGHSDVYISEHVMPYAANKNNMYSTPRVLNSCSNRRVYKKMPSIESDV
NMDA receptor, sequence (Q01097 27-1482, other chains not shown): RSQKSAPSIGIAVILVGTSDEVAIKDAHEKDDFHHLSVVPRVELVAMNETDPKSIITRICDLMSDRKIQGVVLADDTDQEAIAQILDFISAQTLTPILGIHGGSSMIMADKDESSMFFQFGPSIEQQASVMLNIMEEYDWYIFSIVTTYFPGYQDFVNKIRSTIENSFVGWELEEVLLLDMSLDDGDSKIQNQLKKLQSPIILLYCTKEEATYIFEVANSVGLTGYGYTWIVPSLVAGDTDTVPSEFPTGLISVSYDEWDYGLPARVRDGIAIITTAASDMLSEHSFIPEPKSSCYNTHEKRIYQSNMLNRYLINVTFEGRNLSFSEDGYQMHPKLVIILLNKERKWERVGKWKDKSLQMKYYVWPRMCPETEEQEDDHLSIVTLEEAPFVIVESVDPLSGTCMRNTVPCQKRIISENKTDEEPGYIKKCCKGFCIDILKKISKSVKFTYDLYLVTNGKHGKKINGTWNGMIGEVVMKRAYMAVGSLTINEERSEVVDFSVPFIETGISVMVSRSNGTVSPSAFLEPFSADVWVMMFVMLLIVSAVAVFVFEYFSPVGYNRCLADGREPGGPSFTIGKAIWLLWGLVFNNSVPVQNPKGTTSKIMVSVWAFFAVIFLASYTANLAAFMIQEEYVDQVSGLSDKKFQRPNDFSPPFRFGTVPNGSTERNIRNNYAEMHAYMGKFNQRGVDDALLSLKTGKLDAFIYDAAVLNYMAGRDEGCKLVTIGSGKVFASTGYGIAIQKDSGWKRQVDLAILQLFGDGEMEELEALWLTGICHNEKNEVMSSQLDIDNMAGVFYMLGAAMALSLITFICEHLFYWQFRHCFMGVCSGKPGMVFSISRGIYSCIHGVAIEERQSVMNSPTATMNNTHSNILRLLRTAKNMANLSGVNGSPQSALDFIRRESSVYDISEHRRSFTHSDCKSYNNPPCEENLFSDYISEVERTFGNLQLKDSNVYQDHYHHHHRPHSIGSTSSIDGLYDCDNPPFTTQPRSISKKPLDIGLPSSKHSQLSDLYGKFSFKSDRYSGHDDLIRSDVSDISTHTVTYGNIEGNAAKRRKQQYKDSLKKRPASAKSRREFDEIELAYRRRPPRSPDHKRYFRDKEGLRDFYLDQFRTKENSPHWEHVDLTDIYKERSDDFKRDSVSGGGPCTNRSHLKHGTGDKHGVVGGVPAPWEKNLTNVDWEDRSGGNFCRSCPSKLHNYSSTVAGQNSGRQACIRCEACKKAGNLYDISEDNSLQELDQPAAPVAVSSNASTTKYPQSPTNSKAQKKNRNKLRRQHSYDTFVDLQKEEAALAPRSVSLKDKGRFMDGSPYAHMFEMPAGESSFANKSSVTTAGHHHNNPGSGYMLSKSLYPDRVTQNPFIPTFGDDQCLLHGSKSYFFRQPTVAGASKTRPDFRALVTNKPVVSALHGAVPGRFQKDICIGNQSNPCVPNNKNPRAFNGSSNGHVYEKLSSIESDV
Method: MK-801 inhibition of [^3H]-MK-801 binding was assayed in P19 membranes. MK-801 concentrations are expressed as 10^−x Molar. Data points represent the mean±standard error from eight experiments. % control=((CPM−CPMbottom)/(CPMtop−CPMbottom))×100.

p60^c-src, sequence (P12931 whole entry): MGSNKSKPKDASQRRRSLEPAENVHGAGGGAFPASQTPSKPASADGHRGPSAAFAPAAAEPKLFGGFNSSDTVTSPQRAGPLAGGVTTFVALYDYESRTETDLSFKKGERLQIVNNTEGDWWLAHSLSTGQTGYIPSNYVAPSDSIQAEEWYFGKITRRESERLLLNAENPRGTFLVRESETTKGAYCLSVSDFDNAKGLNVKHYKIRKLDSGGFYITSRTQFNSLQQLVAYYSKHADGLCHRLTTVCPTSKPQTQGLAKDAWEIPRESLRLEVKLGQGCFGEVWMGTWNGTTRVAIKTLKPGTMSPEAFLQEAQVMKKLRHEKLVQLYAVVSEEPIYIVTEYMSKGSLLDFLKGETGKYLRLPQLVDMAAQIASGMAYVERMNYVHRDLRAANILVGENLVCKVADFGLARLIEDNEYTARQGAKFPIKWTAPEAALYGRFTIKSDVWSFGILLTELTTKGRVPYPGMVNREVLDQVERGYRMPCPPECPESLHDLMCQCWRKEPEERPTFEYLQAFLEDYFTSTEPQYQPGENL

For `COc1c(C[C@@H](C)OC(=O)Oc2ccc(O)cc2)c2c3c(C[C@@H](C)OC(=O)c4ccccc4)c(OC)c(=O)c4c(O)cc(OC)c(c5c(OC)cc(O)c(c1=O)c52)c43` [Calphostin C], the IC50 (p60^c-src) is given as greater than 50000 nM, the IC50 (PKC) is given as roughly 50 nM and the IC50 (PKA) is given as greater than 50 µM. For the same compound, the IC50 (PKG) was greater than 25 µM, the “Maximal Efficacy for Neuroprotection” value [1] was “˜50%” and the IC50 [1] was greater than 1 µM.
With `COc1cc(N)nc2[nH]c(-c3ccc(F)cc3)c(-c3ccncc3)c12` [Compound A] the “time after glutamate challenge at which efficacy was lost” value (P19 neurons) was 15 min.
For `O=C(O)c1cc(N(Cc2ccccc2O)Cc2cc(O)ccc2O)ccc1O` [Lavendustin A], the IC50 (p60^c-src) is listed as roughly 500 nM, the IC50 (EGF receptor) is listed as roughly 11 nM and the “Maximal Efficacy for Neuroprotection” value [1] is listed as less than 25%. For the same compound, the IC50 [1] was greater than 10 µM.
With `C[C@]12N[C@H](Cc3ccccc31)c1ccccc12` [MK-801, reference compound] the “effect on intracellular calcium response to NMDA receptor agonists” value [2] was “significantly inhibited this response”, the “Cortex + Striatum Vol. (mm^3)” value (Male Wistar rats) was 205.4 ± 28.0 mm^3 and the “Cortex Vol. (mm^3)” value (Male Wistar rats) was 135.0 ± 26.1 mm^3. The “Striatum Vol. (mm^3)” value (Male Wistar rats) was 70.4 ± 2.9 mm^3, the “inhibition of [3H]-MK-801 binding achieved” value (NMDA receptor) was 100% and the “Maximal protection against glutamate toxicity” value ([1]; 3 mM glutamate and 1 mM glycine) was “close to control levels”.
